In the supplement of paper PMC12463676, “Small-molecule dissolution of stress granules by redox modulation benefits ALS models” (Nature Chemical Biology, 2025):

Columns and labels:
[1] = compound: NC(=O)CCCCC1CCSS1 [lipoamide]; assay: thermal stability z-score vs DMSO; higher = more thermally stabilized by treatment; conditions: HeLa, lipoamide concentration 100 µM
Description: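 Cellular thermal proteome profiling in HeLa cells. Cells were treated with 100 µM lipoamide for 1 h, with or without 1 mM arsenate for a further 1 h, then heated to ten temperatures (37-66.3 °C), and soluble protein was quantified by TMT mass spectrometry relative to 0.1% DMSO controls. The thermal stability score (sum of log2 fold changes minus the abundance score) was transformed to a z-score; mean of n = 3 experiments.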

[2] = compound: O=[As]([O-])(O)O.[K+] [potassium arsenate]; assay: as above; conditions: HeLa; arsenate concentration 1 mM
Description: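 Cellular thermal proteome profiling in HeLa cells treated with 1 mM arsenate for 1 h (DMSO pretreatment), heated to ten temperatures (37-66.3 °C). Soluble protein was quantified by TMT mass spectrometry relative to DMSO controls; the thermal stability score was transformed to a z-score; mean of n = 3 experiments.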

[3] = arsenate co-treatment: 1 mM arsenate 1 h
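Note: each temperature applied for 3 min, abundance score taken as mean log2 fold change at the two lowest temperatures, z-score obtained by mean subtraction and division by SD.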

Sequence of UniProt Q9H871 (Q9H871 whole entry): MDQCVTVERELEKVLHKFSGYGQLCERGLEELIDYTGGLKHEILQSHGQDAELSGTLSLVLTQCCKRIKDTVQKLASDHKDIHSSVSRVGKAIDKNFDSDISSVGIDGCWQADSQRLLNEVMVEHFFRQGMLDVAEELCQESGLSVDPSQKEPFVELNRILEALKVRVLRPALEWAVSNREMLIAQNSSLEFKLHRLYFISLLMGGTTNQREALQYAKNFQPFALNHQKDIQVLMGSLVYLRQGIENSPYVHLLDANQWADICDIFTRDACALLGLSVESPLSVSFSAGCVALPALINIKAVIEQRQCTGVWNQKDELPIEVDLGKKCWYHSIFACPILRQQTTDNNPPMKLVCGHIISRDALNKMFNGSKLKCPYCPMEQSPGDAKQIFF
Sequence of UniProt P47813 (P47813 whole entry): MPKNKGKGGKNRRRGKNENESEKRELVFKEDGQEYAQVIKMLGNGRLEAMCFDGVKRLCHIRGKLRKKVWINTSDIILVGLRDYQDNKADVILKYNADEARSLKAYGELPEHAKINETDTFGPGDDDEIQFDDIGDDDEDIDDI
Sequence of UniProt Q92817 (Q92817 whole entry): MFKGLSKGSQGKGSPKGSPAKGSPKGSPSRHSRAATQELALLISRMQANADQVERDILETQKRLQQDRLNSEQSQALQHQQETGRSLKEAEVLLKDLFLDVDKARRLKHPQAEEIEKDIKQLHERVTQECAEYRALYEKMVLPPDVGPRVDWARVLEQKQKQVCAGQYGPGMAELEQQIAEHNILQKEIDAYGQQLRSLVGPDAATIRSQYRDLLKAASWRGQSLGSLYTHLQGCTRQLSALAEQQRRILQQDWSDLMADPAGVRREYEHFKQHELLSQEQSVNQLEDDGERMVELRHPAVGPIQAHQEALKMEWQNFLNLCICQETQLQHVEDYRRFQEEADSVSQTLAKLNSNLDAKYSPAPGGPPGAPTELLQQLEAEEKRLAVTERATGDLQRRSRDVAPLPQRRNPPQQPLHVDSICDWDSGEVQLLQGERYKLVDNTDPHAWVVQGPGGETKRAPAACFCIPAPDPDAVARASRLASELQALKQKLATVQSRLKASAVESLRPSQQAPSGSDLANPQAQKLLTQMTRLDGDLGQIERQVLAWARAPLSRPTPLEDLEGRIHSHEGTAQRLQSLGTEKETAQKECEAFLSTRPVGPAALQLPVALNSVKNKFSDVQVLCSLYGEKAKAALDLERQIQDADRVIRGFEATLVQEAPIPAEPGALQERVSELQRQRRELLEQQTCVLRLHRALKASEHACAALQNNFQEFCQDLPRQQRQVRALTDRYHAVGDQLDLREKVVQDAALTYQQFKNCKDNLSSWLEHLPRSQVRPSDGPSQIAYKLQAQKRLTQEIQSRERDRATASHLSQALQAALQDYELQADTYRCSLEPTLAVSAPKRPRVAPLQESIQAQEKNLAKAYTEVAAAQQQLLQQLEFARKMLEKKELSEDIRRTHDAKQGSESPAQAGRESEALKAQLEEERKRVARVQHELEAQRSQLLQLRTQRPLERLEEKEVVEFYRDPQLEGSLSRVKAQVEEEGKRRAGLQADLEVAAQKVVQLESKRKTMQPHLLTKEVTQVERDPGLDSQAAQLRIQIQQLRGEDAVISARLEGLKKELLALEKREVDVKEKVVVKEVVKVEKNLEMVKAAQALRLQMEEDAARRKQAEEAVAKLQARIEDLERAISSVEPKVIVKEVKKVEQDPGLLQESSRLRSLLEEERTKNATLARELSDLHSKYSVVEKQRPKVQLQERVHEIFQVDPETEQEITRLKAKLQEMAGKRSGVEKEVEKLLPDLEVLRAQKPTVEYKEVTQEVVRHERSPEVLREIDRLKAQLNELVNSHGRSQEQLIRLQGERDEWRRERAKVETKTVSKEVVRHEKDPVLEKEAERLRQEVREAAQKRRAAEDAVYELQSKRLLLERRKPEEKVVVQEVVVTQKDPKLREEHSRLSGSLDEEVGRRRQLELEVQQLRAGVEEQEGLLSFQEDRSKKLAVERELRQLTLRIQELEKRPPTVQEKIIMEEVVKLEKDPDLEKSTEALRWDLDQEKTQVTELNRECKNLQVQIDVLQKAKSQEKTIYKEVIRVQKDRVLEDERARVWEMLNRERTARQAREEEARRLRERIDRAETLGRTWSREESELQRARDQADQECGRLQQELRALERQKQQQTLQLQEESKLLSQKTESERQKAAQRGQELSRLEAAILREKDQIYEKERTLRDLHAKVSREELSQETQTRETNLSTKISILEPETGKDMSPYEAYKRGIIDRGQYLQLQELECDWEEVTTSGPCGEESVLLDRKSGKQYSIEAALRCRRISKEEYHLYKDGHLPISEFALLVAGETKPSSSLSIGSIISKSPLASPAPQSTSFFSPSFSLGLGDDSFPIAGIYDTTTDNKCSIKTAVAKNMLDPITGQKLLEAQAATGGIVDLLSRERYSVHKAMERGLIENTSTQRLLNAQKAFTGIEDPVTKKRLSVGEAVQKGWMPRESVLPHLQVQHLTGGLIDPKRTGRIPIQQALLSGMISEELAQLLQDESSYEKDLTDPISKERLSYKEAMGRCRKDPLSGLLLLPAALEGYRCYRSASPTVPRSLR
Sequence of UniProt O75864 (O75864 whole entry): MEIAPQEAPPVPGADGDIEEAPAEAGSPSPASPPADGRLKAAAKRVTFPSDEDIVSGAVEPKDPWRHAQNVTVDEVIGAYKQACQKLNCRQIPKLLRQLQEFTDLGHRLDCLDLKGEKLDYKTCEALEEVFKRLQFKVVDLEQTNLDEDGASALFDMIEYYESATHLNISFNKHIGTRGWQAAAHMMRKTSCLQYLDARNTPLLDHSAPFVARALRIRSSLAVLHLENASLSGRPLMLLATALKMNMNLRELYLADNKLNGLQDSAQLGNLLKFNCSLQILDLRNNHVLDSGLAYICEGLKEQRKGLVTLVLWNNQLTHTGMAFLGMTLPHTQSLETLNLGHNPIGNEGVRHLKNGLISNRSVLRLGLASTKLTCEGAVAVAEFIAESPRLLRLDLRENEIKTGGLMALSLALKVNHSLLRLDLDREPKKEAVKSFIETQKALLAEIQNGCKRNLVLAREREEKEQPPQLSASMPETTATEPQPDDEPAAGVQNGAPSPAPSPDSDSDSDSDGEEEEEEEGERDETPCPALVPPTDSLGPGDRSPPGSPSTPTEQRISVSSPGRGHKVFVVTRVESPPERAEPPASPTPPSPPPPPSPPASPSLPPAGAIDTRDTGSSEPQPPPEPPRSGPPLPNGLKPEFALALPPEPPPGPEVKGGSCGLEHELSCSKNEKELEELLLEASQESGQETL
Sequence of UniProt Q9P0T7 (Q9P0T7 whole entry): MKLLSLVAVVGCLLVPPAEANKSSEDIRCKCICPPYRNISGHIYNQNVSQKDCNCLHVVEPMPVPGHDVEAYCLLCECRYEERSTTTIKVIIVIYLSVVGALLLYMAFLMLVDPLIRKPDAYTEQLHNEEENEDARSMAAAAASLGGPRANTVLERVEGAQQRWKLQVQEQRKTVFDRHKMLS
Sequence of UniProt Q9H0U3 (Q9H0U3 whole entry): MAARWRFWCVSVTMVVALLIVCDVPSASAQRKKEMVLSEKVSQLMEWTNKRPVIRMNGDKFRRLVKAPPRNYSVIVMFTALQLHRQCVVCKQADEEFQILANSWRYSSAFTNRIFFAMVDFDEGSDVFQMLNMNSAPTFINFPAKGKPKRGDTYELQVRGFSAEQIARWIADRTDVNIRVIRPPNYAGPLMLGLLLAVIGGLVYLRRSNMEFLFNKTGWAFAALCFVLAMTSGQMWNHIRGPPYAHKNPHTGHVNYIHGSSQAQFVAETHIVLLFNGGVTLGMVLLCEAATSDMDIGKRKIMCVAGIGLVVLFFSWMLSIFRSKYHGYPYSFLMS
Sequence of UniProt O43464 (O43464 whole entry): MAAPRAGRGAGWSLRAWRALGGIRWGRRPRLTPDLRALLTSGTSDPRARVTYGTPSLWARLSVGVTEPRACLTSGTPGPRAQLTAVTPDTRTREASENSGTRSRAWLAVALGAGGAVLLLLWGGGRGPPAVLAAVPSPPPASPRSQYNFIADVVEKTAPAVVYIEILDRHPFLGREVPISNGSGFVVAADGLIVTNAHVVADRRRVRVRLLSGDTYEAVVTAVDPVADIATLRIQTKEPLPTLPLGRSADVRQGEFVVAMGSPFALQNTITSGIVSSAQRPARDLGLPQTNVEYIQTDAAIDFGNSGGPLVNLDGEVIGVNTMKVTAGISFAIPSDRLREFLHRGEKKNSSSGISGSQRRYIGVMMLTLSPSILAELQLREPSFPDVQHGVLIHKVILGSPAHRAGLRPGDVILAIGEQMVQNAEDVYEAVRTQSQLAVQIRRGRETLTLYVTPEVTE
Sequence of UniProt Q07866 (Q07866 whole entry): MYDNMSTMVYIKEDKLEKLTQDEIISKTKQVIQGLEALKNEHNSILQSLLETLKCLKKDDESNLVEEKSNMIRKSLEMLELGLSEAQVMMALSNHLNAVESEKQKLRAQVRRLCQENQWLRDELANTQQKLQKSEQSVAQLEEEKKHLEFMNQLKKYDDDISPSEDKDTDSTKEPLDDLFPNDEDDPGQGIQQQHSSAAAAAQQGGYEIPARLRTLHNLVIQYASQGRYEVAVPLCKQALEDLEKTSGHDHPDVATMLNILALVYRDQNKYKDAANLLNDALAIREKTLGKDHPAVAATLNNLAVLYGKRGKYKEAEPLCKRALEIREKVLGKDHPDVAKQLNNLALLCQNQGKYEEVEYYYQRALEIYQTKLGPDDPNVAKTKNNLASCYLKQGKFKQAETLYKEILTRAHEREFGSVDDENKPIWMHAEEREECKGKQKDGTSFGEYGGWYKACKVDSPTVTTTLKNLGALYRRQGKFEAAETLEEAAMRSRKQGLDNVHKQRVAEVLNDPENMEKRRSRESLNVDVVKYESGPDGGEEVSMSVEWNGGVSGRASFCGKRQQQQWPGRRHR
Sequence of UniProt Q6NZ67 (Q6NZ67 whole entry): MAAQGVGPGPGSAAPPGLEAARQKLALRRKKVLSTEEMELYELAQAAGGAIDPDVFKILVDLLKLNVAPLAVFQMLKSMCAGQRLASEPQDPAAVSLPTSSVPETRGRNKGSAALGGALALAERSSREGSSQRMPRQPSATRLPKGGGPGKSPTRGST

Target	thermal stability z-score [1, 3]	thermal stability z-score ([1]; arsenate co-treatment: none)	thermal stability z-score [2]
MCM4 (UniProt P33991)	-0.472	-0.0478	-0.472
MRPS22 (UniProt P82650)	-0.329	0.295	-0.109
SF3B6 (UniProt Q9Y3B4)	-0.787	-0.165	-0.667
GPX8 (UniProt Q8TED1)	-4.37	-5.4	0.394
XRCC6 (UniProt P12956)	-0.75	0.0871	-0.634
SNAPC1 (UniProt Q16533)	-0.175	-0.207	0.0437
HCFC1 (UniProt P51610)	1.26	1.15	-0.101
KLC1 (UniProt Q07866)	-0.0381	-0.129	-0.0989
SRGN (UniProt P10124)	-0.234	0.0347	-0.673
UQCRC2 (UniProt P22695)	0.268	-0.0661	-2.47
FAM111B (UniProt Q6SJ93)	4.69	1.31	9.3
PEX14 (UniProt O75381)	-0.54	-0.596	-0.269
MYO5C (UniProt Q9NQX4)	0.173	0.236	0.0128
PPP1R37 (UniProt O75864)	-0.153	-0.186	-0.0199
C2CD2 (UniProt Q9Y426)	-0.506	0.109	0.234
VWA5A (UniProt O00534)	-0.245	0.147	-0.235
RSBN1L (UniProt Q6PCB5)	-0.0324	-0.225	0.113
UHRF1BP1 (UniProt Q6BDS2)	-0.235	0.193	0.149
PAFAH1B2 (UniProt P68402)	0.526	0.289	-0.469
CNOT6 (UniProt Q9ULM6)	-0.197	-0.108	0.03
DDX41 (UniProt Q9UJV9)	-0.196	-0.0709	-0.204
RCOR3 (UniProt Q9P2K3)	0.0711	0.0826	0.119
PLCL2 (UniProt Q9UPR0)	-0.2	-0.373	-0.417
SMC4 (UniProt Q9NTJ3)	0.387	1.46	0.763

Target	thermal stability z-score [1, 3]	thermal stability z-score ([1]; arsenate co-treatment: none)	thermal stability z-score [2]
MARCH6 (UniProt O60337)	-0.245	-0.44	-0.855
DPP8 (UniProt Q6V1X1)	0.32	0.543	0.257
RASAL2 (UniProt Q9UJF2)	-0.126	0.0905	-0.227
CHMP1A (UniProt Q9HD42)	0.125	0.254	0.38
SARS2 (UniProt Q9NP81)	-0.781	-0.828	-0.442
CHID1 (UniProt Q9BWS9)	-3.11	-1.7	1.18
MZT2B (UniProt Q6NZ67)	0.0548	0.181	0.0663
TRIM32 (UniProt Q13049)	-0.257	-0.125	-3.56
TMEM9 (UniProt Q9P0T7)	-2.36	-2	-0.267
NENF (UniProt Q9UMX5)	0.318	-0.406	-0.0969
RAD23B (UniProt P54727)	1.08	1.05	0.357
GLMP (UniProt Q8WWB7)	2.79	3.71	3.11
RAPH1 (UniProt Q70E73)	-0.113	-0.22	0.0198
TOR1AIP1 (UniProt Q5JTV8)	-2.27	-2.09	-0.146
RMND5A (UniProt Q9H871)	0.216	0.0656	0.156
HPD (UniProt P32754)	0.25	0.117	1.61
HTRA2 (UniProt O43464)	-0.984	-0.617	-0.816
RSPRY1 (UniProt Q96DX4)	0.302	0.576	-0.152
TSEN2 (UniProt Q8NCE0)	0.337	0.418	-0.00537
MAGT1 (UniProt Q9H0U3)	-3.45	-2.9	0.251
C11ORF31|SELH	0.115	0.162	-0.153
MRPL38 (UniProt Q96DV4)	-0.319	-0.0312	0.134
EVPL (UniProt Q92817)	0.263	0.134	0.499
PARVB (UniProt Q9HBI1)	-0.459	0.319	-0.107

Target	thermal stability z-score [1, 3]	thermal stability z-score ([1]; arsenate co-treatment: none)	thermal stability z-score [2]
NUDT19 (UniProt A8MXV4)	-0.133	0.126	-0.208
SLC4A1AP (UniProt Q9BWU0)	0.445	0.341	-1.27
VPS18 (UniProt Q9P253)	-0.401	-0.805	0.788
RHBDD2 (UniProt Q6NTF9)	-0.424	-0.384	-0.574
PIGS (UniProt Q96S52)	-2.47	-2.43	0.44
DHX16 (UniProt O60231)	-0.223	0.345	-1.81
TERF2IP (UniProt Q9NYB0)	-0.302	0.33	-0.131
HADHB (UniProt P55084)	-0.0335	0.077	-0.422
PRKCZ (UniProt Q05513)	-0.134	-0.119	-0.0717
RHBDF2 (UniProt Q6PJF5)	-0.0324	-0.158	0.166
JUNB (UniProt P17275)	0.208	0.791	-1.55
TMEM33 (UniProt P57088)	-0.0206	-1.12	0.972
RPL18A (UniProt Q02543)	0.628	0.246	-0.333
TDRD3 (UniProt Q9H7E2)	-0.448	0.0394	-0.796
ARHGEF12 (UniProt Q9NZN5)	-0.125	-0.261	0.192
MLH1 (UniProt P40692)	-0.0694	0.372	1.04
CYB561A3 (UniProt Q8NBI2)	-0.299	-0.521	-0.949
PRKCA (UniProt P17252)	0.358	0.32	0.458
ZNF598 (UniProt Q86UK7)	0.0109	-0.407	-0.82
EIF1AX (UniProt P47813)	-0.268	0.0406	0.464
MLEC (UniProt Q14165)	-3.66	-2.94	0.385
CBFB (UniProt Q13951)	-0.0158	-0.159	0.352
PSIP1 (UniProt O75475)	0.499	0.761	-0.306
